“Also recorded” adds a separate entry of the source.

The subject of data set [1] is rat primary cortical neurons. Description: Neurite outgrowth assay in cortical neuron culture. Particulars: for minimal effective concentration: Rattus norvegicus, Primary cortical neuron, 72 h, 3 days exposure of cortical neurons, read-out: concentration giving significant neurite outgrowth; for block of Compound 1-induced enhancement of neurite outgrowth by PLC inhibitor: inhibitor in combination with Compound 1; for effect on neurite outgrowth, substance alone: primary cortical neurons. The class given is cell-based. The procedure:
Female rats of 17 days gestation were killed by cervical dislocation and the foetuses were removed from the uterus. Their brains were placed in ice-cold medium of Leibovitz (L15, Gibco, Fisher bioblock, France). Cortex were dissected and meninges were carefully removed. The cortical neurons were dissociated by trypsinization for 30 min at 37° C. (trypsin-EDTA Gibco) in presence of 0.1 mg/ml DNAse I (Roche, France). The reaction was stopped by addition of in medium of Eagle modified by Dulbecco (DMEM; Gibco) with 10% of fetal bovine serum (FBS; Gibco). The suspension was triturated with a 10-ml pipette and using a needle syringe 21G and centrifuged at 350×g for 10 min at room temperature. The pellet of dissociated cells was resuspended in a medium consisting of Neurobasal (Gibco) supplemented with 2% B27 supplement (Gibco), 0.5 mM L-Glutamine (Gibco), an antibiotic-antimicotic mixture. Viable cells were counted in a Neubauer cytometer using the trypan blue exclusion test (Sigma). Cells were seeded on the basis of 30000 cells per Petri dish (ø35 mm, Nunc) precoated with poly-L-lysine.
Cells were allowed to adhere 2 h and maintained in a humidified incubator at 37° C. in 5% CO2-95% air atmosphere.
After neuronal adhesion (2 h after the plating), cultures were exposed to Compound 1 or BDNF for a period of 3 days.
After the 3 days exposure of the neurons to the test compounds, cultures were washed with phosphate-buffered saline (PBS, Gibco) and fixed using 2.5% glutaraldehyde in PBS. Several pictures (˜80) of neurons with neurites without any branching were taken per condition using a digital camera (Coolpix 995; Nikon) mounted on the microscope (Nikon, objective 40×). Neurites were outlined on computer screen using imaging software (Image-Pro Plus, France), which automatically calculates the length.
A global analysis of the data was performed using a one way analysis of variance (ANOVA), followed by Fisher's Protected Least Significant Difference when applicable. The level of significance was set to p<0.05. All results were expressed as mean±sem. N=˜180 cells
The compound of example 1h was tested at 0.1 nM, 1 nM, 10 nM, 100 nM and 1000 nM on two independent cultures comprising 2 Petri dishes per culture and per condition. In parallel, BDNF was tested at 50 ng/ml.

For data set [2], the system named is mouse. Description: Mouse light dark box model. The data set is classed as in vivo. Here is the method:
U73122 was then examined for an in vivo effect on the activity of Example 1 in the mouse light dark box. U73122 was given IP at 30 mg/kg, 120 minutes prior to testing. Compound 1 was dosed orally at 10 mg/kg, 60 minutes prior to testing. […] This experiment was repeated using the anxiolytic compound diazepam to determine whether the activity of U73122 was specific to Compound 1 (FIG. 5).

Data set [3] can be described thus: Non-precipitated withdrawal (physical dependence) after 14-day dosing. Particulars: 14 days at 10, 30 and 100 mg/kg/day; 5 days post-treatment; versus no-drug group; listed as Compound 1. The class given is in vivo, rat. The source says: Sudden discontinuation of antidepressant medication may produce withdrawal effects caused by physical dependence on the drug. Compounds can be evaluated for physical dependence in a simple animal model where, following a period of chronic dosing (e.g., for 14-20 days), the study drug is stopped and measurements of food intake, body weight and body temperature are taken over the next 5 days. […] This model is suitable for detecting the effects across a broad range of drug classes including opiates, antidepressants and benzodiazepines. […]
Rats treated chronically (14-20 days) with opioids, benzodiazepines Or SSRIs display adverse physical effects after non-precipitated withdrawal of the drugs. The potential consequences of abrupt cessation of dosing with Compound 1 was assessed following 14 days of treatment at 0, 10, 30 and 100 mg/kg/day.

Regarding `CCn1cc(C(=O)Nc2ccc(-c3ccccc3)cc2)c(=O)c2cc(NC3Cc4ccccc4C3)cnc21` [Example 6, 4-biphenylamino-6-(2,3-dihydro-1H-inden-2-ylamino)-1-ethyl-1,4-dihydro-4-oxo-1,8-naphthyridine-3-carboxamide], the minimal effective concentration in data set [1] is below 0.1 µM.

On to `CCn1cc(C(=O)Nc2ccc(F)cc2)c(=O)c2cc(NC3Cc4ccccc4C3)cnc21` [Example 5, 4-fluorophenylamine 6-(2,3-dihydro-1H-inden-2-ylamino)-1-ethyl-1,4-dihydro-4-oxo-1,8-naphthyridine-3-carboxamide], for which the minimal effective concentration in data set [1] was below 0.1 µM.

As for `CCOC(=O)c1cn(CC)c2ncc(N)cc2c1=O` [Example 1f, Ethyl 1-ethyl-1,4-dihydro-6-amino-4-oxo-1,8-naphthyridine-3-carboxylate], the minimal effective concentration in data set [1] was below 0.1 µM.

As for `S=C([S-])OC1CC2CC1C1CCCC21.[K+]` (centres unmarked) [Example D609, reference compound], in data set [1], the “block of Compound 1-induced enhancement of neurite outgrowth by PLC inhibitor” value is “blocked; also recorded: significant and dose-dependant reduction”; the “effect on neurite outgrowth, substance alone” value is “enhanced neurite outgrowth”.

Turning to `CCn1cc(C(=O)NC2CC2)c(=O)c2cc(NC3Cc4ccccc4C3)cnc21` [Example 3, Cyclopropylamino 6-(2,3-dihydro-1H-inden-2-ylamino)-1-ethyl-1,4-dihydro-4-oxo-1,8-naphthyridine-3-carboxamide], the minimal effective concentration in data set [1] was below 0.1 µM.

For the compound `CCOC(=O)c1cn(CC)c2ncc(NC3Cc4ccccc4C3)cc2c1=O` [Example 1g, Ethyl 6-(2,3-dihydro-1H-inden-2-ylamino)-1-ethyl-1,4-dihydro-4-oxo-1,8-naphthyridine-3-carboxylate], the minimal effective concentration in data set [1] was below 0.1 µM.

`CCn1cc(C(=O)N2CCN(C)CC2)c(=O)c2cc(NC3Cc4ccccc4C3)cnc21` [Example 2, Methylpiperazino 6-(2,3-dihydro-1H-inden-2-ylamino)-1-ethyl-1,4-dihydro-4-oxo-1,8-naphthyridine-3-carboxamide]: in data set [1], the minimal effective concentration is below 0.1 µM.

For the compound `CCOC(=O)c1cn(CC)c2ncc(NC(=O)C(C)C)cc2c1=O` [Example 7, Ethyl 6-(isobutyrylamide)-1-ethyl-1,4-dihydro-4-oxo-1,8-naphthyridine-3-carboxylate], the minimal effective concentration in data set [1] was below 0.1 µM.

Take `CCn1cc(C(=O)N2CCOCC2)c(=O)c2cc(N)cnc21` [Example 4, Morpholino 6-amino-1-ethyl-1,4-dihydro-4-oxo-1,8-naphthyridine-3-carboxamide]: in data set [1], the minimal effective concentration was below 0.1 µM.

On to `CCn1cc(C(=O)N2CCOCC2)c(=O)c2cc(NC3Cc4ccccc4C3)cnc21` [Example 1h], for which the anxiolytic activity entry in data set [2] (10 mg/kg orally, 60 minutes prior to testing) is “robust anxiolytic activity”. In addition, in data set [1], the minimal effective concentration is below 0.1 µM and the “effect on neurite outgrowth, substance alone” value is “enhancement of neurite outgrowth”. The “changes in body temperature, weight gain or food consumption after withdrawal” value in data set [3] was “does not produce signs of withdrawal; also recorded: did not produce significant changes”.

Regarding `COc1ccc2c(c1)CC[C@@H]1[C@@H]2CC[C@]2(C)[C@@H](NCCCCCCN3C(=O)C=CC3=O)CC[C@@H]12` [Example U73122, reference compound], in data set [2] (U73122 30 mg/kg IP in combination with 10 mg/kg p.o. Compound 1), the “effect on anxiolytic activity of Compound 1” value is recorded as “blocks; also recorded: fully blocked the anxiolytic effect”. The “effect on the Time, Entries or Distance parameters, alone” value in data set [2] (U73122 30 mg/kg IP, 120 minutes prior to testing) is given as “did not have any effect”. In addition, in data set [2] (U73122 30 mg/kg i.p. with diazepam 1 mg/kg p.o.), the “effect on the animals' responses to diazepam” value is reported as “did not cause any change”. Besides, the “block of Compound 1 activity on neurite outgrowth” value in data set [1] (U73122 at 1 μM, Compound 1 10 nM) was “significant block”. The “concentration at which full block of Compound 1 activity occurs” value in data set [1] (U73122 tested over 30 nM to 1 μM with Compound 1 10 nM) amounted to 100 nM. Moreover, in data set [1], the “block of Compound 1-induced enhancement of neurite outgrowth by PLC inhibitor” value was “blocked; also recorded: dose-related block”.

(Values after patent US20140051701A1, “METHODS OF TREATING A DISEASE OR CONDITION OF THE CENTRAL NERVOUS SYSTEM” (Bionomics Limited, priority 2011, published 2014).)
